The source of these data is US10201559B2, “Compositions of selenoorganic compounds and methods of use thereof” (Alltech, Inc., priority 2014, dated 2019).

Data set [1] deals with IMR-32 cells. Briefly: Cell viability assay, IMR-32. It is filed as cell-based, human. How it is done: (§1) Cell viability in cultured cells was determined using Promega's CellTiter96® AQueous One Solution Cell Proliferation Assay kits, according to the Manufacturer's protocol. In brief, equal number of C2C12 (1×10^4 cells/well), AML-12 (1×10^4 cells/well) and IMR-32 (2×10^4 cells/well) were seeded on 96-well clear plates (VWR) and treated with vehicle or compounds for 24, […] and/or 72 hr. Then, cultured cells were incubated with AQueous One solution (100 ul/per well) at 37° C. for 1 hr, and the absorbance of OD490 nm in each sample was determined by the Bio-Tek microplate reader. Cell viability in culture cells were determined by the subtraction of OD490 nm in cultured cells with the OD490 nm in plain culture media (without seeding of cells). Eight samples per each treatment were examined for the above analysis. Data are presented as Mean±sem of eight samples.

The subject of the next data set is AML-12 cells. The data set can be described thus: Cell viability assay, AML-12. In kind it is cell-based, mouse. The protocol: as §1
The test system of a further data set is C2C12 cells. The data set can be described thus: Quantitative analysis of mitochondrial potential in C2C12 cells. In kind it is cell-based, mouse. The settings on record: all concentrations. The protocol:
For C2C12 cells, equal number of cells (1×10^4) were seeded on Corning 96-well clear-bottom and dark-wall cell culture plates (VWR), cultured in 10% FBS DMEM media for 24 hr., and then treated with vehicle (sterilized water), compound C and D and their sulfur analogs for 24 and 48 hrs. These vehicle- or compound-treated cells were rinsed twice with PBS, incubated with Mitotracker Orange fluorescence dye at 37° C. for 30 min, and then replaced with PBS. Mitotracker Orange fluorescence intensities (mitochondrial potential) in these living cells were determined by a Bio-TeK Synergy HT Multi-Mode Fluorescence Microplate Reader (Winooski, Vt.). Eight samples per each treatment were examined for the above analysis, and data are presented as mean±sem of eight samples.

The test system of data set [2] is Adult rat brain ficoll purified mitochondria. The data set can be described thus: Mitochondrial bioenergetics screen (Seahorse OCR) on isolated rat brain mitochondria. It is filed as biochemical. Particulars: 500 ppb, 30 min at 37° C. The source says: A water soluble extract was obtained from selenized yeast. […] We reasoned that these selenium species would be the first to be liberated/digested from selenized yeast in its passage through the intestinal tract. […] Because we were primarily interested in the potential effects of these selenium species on mitochondrial bioenergetics, it was decided to test these selenium molecules directly using mitochondria.
Selenium concentration ranges low (50 ppb), mid (500 ppb) and high (1 ppm) were initially tested as a possible range for the compounds. […] Adult rat brain ficoll purified mitochondria were incubated with the 9 compounds for 30 min at 37° C. prior to being loading into the Seahorse Biosciences flux analyzer in triplicate. We measured OCR (Oxygen Consumption Rates) parameters in three respiratory states including ATP synthesis (State III), Complex I dependent (NADH-driven) Maximum Respiratory Capacity (State VFCCP) and Complex II (FADH-driven) dependent Maximum Respiratory Capacity (State Vsucc).

For data set [3], the system named is IMR-32 cells. The data set can be described thus: Quantitative analysis of mitochondrial potential in IMR-32 cells. It is filed as cell-based, human. Particulars: 6 hr, compared to control. How it is done: Similar to the above studies on AML-12 cells, the mitochondrial potential per cell in living IMR-32 cells was determined using the Bio-TeK Synergy HT Multi-Mode fluorescence microplate reader with the following modifications. To improve the attachment of IMR-32 cells to culture dishes, cell culture plates were precoated with 0.1% gelatin (Sigma, St. Louis, Mo.). 2×10^4 cells per a 96-well were seeded on gelatinized 96-well plates for the above studies. To reduce the cell dislodgment, Mitotracker orange and Hoechst 33342 fluorescent dyes (diluted in culture media) were directly added to each well after vehicle- or compound-treatments. After dye incubation, cell culture media were carefully replaced with 1× PBS for the quantitation analysis of fluorescence on the microplate reader. Eight samples per each treatment were examined for the above analysis, and the experiments were repeated at least five times. Data are presented as mean±sem of eight samples.

Another data set deals with HEK293T cells. Briefly: Fluorescence analysis of mitochondrial potential in HEK293T cells. In kind it is cell-based, human. Particulars: dose not stated. How it is done: HEK293T cells were cultured in 8-chamber glass slides (1×10^4 cells/chamber) for 24 hours, and then treated with various concentrations of compounds or its respective sulfur analogs (dissolved in sterilized water) for 4.5 hr. These compound-treated cells were rinsed twice with PBS, and incubated with Mitotracker Orange Fluorescence Dye (Invitrogen) at 37° C. for 30 min, and then replaced with fresh PBS according to the Manufacturer's protocol. Then fluorescent signals (mitochondrial potential) in these living cells were recorded using a Zeiss Axio Vert.A1 fluorescence microscope (Thornwood, N.Y.). At least three samples in each treatment group were analyzed under the fluorescent microscope.

Where two headings read alike, the source gives them in different places. Square brackets hold non-standard residues; d marks the D form. Peptide text beside a SMILES is read from it. Sec = N[C@@H](C[SeH])C(=O)O

Take `Nc1ncnc2c1ncn2[C@@H]1O[C@H](CSCCC(N)C(=O)O)C(O)C1O` (stereo in doubt) [compound I, S-Adenosyl-L-homocysteine, reference compound]: the “cell viability (OD490 nm)” value was “slight decrease in viability” in the data set with IMR-32 cells [1] (24, 48 and 72 hr); “no toxic effects” in the data set with AML-12 cells (48 hr). The mitochondrial potential entry with C2C12 cells is listed as “decreased mitochondrial potential at all concentrations”.
Take `C[Se]C[C@H]1O[C@@H](n2cnc3c(N)ncnc32)[C@H](O)[C@@H]1O` [Compound 9, MethylSelenoadenosine]: the “mitochondrial potential (bioenergetics, OCR)” value in data set [2] is recorded as “increased mitochondrial potential”.
The same measure, in the same setting: next, `N[C@@H](CCC(=O)O)C(=O)N[C@@H](C[SeH])C(=O)O` [Compound 10, Glutamylselenocysteine] (H-Glu-[Sec]-OH): “inhibited mitochondrial potential”.
For the compound `CSC[C@H]1O[C@@H](n2cnc3c(N)ncnc32)[C@@H](O)C1O` (some centres unmarked) [compound H, 5′-Methylthioadenosine, reference compound], the MT potential result with IMR-32 cells [3] was “Increased MT potential”. The “cell viability (OD490 nm)” value in the data set with IMR-32 cells [1] (24, 48 and 72 hr) is “slight decrease in viability”; in the data set on AML-12 cells (48 hr), “no toxic effects”. In the data set with C2C12 cells, the mitochondrial potential result is reported as “decreased mitochondrial potential at all concentrations”. Besides, the “MT potential / mitochondrial activity in kidney cells” value in the data set on HEK293T cells is reported as “incapable of stimulating mitochondrial activity”.
With `CSC[C@H](NC(=O)CC[C@H](N)C(=O)O)C(=O)O` [compound J, γ-L-glutamyl-methyl-L-cysteine, reference compound], the “cell viability (OD490 nm)” value with IMR-32 cells [1] is reported as “slight decrease in viability”; in the data set on AML-12 cells it was “no toxic effects”. In addition, in the data set with HEK293T cells, the “MT potential / mitochondrial activity in kidney cells” value was “incapable of stimulating mitochondrial activity”.
With “Leucine-Threonine-Glycine-Selenomethionine-Alanine-Phenylalanine-Arginine [Compound 7]”, the “mitochondrial potential (bioenergetics, OCR)” value in data set [2] is on record as “inhibited mitochondrial potential”.
